≈ marks a conversion by molar mass, not a printed value.
Legend:
[1] = tested on: Lactobacillus strains (L. rhamnosus BCRC 10940, L. paracasei BCRC 14001, L. delbrueckii BCRC 14008); experiment: antimicrobial activity (MIC), microtitre plate-based method; format: cell-based; details: 10^5 cfu/ml, 37° C., 24 h, MRS medium, triplicate; read-out: minimal inhibitory concentration (MIC)
Experimental: (§1) Three Lactobacillus strains, L. rhamnosus BCRC 10940, L. paracasei BCRC 14001, L. delbrueckii BCRC 14008, were purchased from the FIRDI, which were cultured in MRS w/o agar medium (Difco) and stored at 4° C. To activate the bacteria, the cells were inoculated in MRS medium at a concentration of 5% (v/v) and cultured at 37° C. for 24 hours, and then 10^7 cells/ml of each of the three Lactobacillus strains was inoculated in 5 ml of MRS medium with shaking overnight.
(§2) Antimicrobial activity of antibiotics against the three Lactobacillus strains was measured by a microtitre plate-based method. […] 10 μl of activated bacterial cultures was added to each well to achieve a concentration of 10^5 cfu/ml per well, and the plates were incubated at 37° C. for 24 h. The growth of the bacteria was measured by absorbance at 600 nm and the survival percentages were determined. Further, the minimal inhibitory concentration (MIC) was determined as the lowest concentration of the antibiotics allowing no visible growth of the bacteria. Data are the averages of a triplicate experiment.

L. paracasei [2] = experiment: simultaneous treatment of antibiotics and fermented soy extract, survival counting; format: cell-based; details: FSE 5% where added, 48 h
Experimental: as §1
(§3) The plates were incubated at 37° C. for 48 h.

L. rhamnosus [3] = experiment: as above; format: cell-based; details: FSE 5% where added, 48 h
Experimental: as §1, §3

L. delbrueckii [4] = experiment: as above; format: cell-based; details: FSE 5% where added, 48 h
Experimental: as §1, §3

L. delbrueckii [5] = experiment: microtitre plate-based growth assay, cell number (Table 3); parameters: species or system L. delbrueckii BCRC 14008
Experimental: as §1, §2
(§4) On the other hand, the fermented soy extract prepared of the invention as in Example 1 was analyzed for its prebiotic activity to support the growth of beneficial bacteria using the microtitre plate-based method as described above. The fermented soy extract of the invention was added at a concentration of 5% into the wells and the plates were incubated at 37° C. for 48 h. The cell number was counted.

L. rhamnosus [6] = experiment: as above; parameters: species or system L. rhamnosus BCRC 10940
Experimental: as §1, §2, §4

L. paracasei [7] = experiment: as above; parameters: species or system L. paracasei BCRC 14001
Experimental: as §1, §2, §4

MIC [1] [µg/mL]	Structure (SMILES)	survival counting L. paracasei (L. paracasei [2]; antibiotic 2 μg/ml)	survival counting L. paracasei (L. paracasei [2]; antibiotic 5 μg/ml)	survival counting L. rhamnosus (L. rhamnosus [3]; antibiotic 2 μg/ml)	survival counting L. rhamnosus (L. rhamnosus [3]; antibiotic 5 μg/ml)	survival counting L. delbrueckii (L. delbrueckii [4]; antibiotic 2 μg/ml)	survival counting L. delbrueckii (L. delbrueckii [4]; antibiotic 5 μg/ml)	cell number L. delbrueckii (L. delbrueckii [5]; antibiotic 2 μg)	cell number L. rhamnosus (L. rhamnosus [6]; antibiotic 2 μg)	cell number L. paracasei (L. paracasei [7]; antibiotic 2 μg)	cell number L. delbrueckii (L. delbrueckii [5]; antibiotic 1 μg)	cell number L. rhamnosus (L. rhamnosus [6]; antibiotic 1 μg)	cell number L. paracasei (L. paracasei [7]; antibiotic 1 μg)
3.6 (≈ 9.85 µM)	CC1(C)S[C@@H]2[C@H](NC(=O)[C@H](N)c3ccc(O)cc3)C(=O)N2[C@H]1C(=O)O [AMO, amoxicillin]	3000 ± 500	4300 ± 445	500 ± 50	370 ± 10	6670 ± 610	1170 ± 76	5.00 × 10^4	3.40 × 10^3	2.00 × 10^4	–	–	–
3.6 (≈ 10.3 µM)	CC1(C)S[C@@H]2[C@H](NC(=O)[C@H](N)c3ccccc3)C(=O)N2[C@H]1C(=O)O [AMP, ampicillin]	3670 ± 350	4700 ± 409	967 ± 76	230 ± 15	4330 ± 260	–	5.58 × 10^6	6.30 × 10^4	3.29 × 10^6	–	–	–
1 (≈ 1.34 µM)	CC[C@H]1OC(=O)[C@H](C)[C@@H](O[C@H]2C[C@@](C)(OC)[C@@H](O)[C@H](C)O2)[C@H](C)[C@@H](O[C@@H]2O[C@H](C)C[C@H](N(C)C)[C@H]2O)[C@](C)(OC)C[C@@H](C)C(=O)[C@H](C)[C@@H](O)[C@]1(C)O [CAM, clarithromycin]	–	–	–	–	–	–	–	–	–	3.45 × 10^5	5.10 × 10^4	3.27 × 10^5
1 (≈ 1.36 µM)	CC[C@H]1OC(=O)[C@H](C)[C@@H](O[C@H]2C[C@@](C)(OC)[C@@H](O)[C@H](C)O2)[C@H](C)[C@@H](O[C@@H]2O[C@H](C)C[C@H](N(C)C)[C@H]2O)[C@](C)(O)C[C@@H](C)C(=O)[C@H](C)[C@@H](O)[C@]1(C)O [Eryc, erythromycin]	–	–	–	–	–	–	3.16 × 10^5	5.07 × 10^4	3.18 × 10^5	–	–	–
